Measurements: patent US9675638B2, “Use of tungsten (VI) salts for the treatment of female infertility in non-diabetic mammals” (OXOLIFE, S.L., priority 2013, dated 2017)
Several values for one entry are separate records, joined by “and”; a condition that tells them apart may be missing. Equal entries are not always repeated. Structures can show the parent of a compound that is named as a salt.

Key:
[1] = test system: women whose ovulation is irregular or absent; settings: cited from earlier work
IRS2−/− female mice [2] = experiment: Ovulation study: phase of the estrous cycle by vaginal smears (Papanicolaou); assay type: in vivo, mouse; set-up: key to phase of the estrous cycle: A: anestrus; D: diestrus; P: proestrus; E: estrus; M: metestrus; settings: for phase of the estrous cycle: individual IRS2−/− female mice, dihydrate
Description: (§1) 10 IRS2^−/− female mice of ages comprised between 6 and 8 weeks. 6 “wild-type” (IRS2^wt) male mice of ages comprised between 6 and 8 weeks.
(§2) The female and male mice were housed separately in normal conditions, i.e., 12-hour light/darkness cycle and controlled moisture and temperature. The animals were voluntarily fed (also named ad libitum) with a standard feed diet.
(§3) After a period of acclimation, the IRS2^−/− female mice were housed in groups of 4-6 mice/cage. Tungstate-free drinking water was administered to the animals during the pre-treatment phase (2 weeks).
(§4) Sodium tungstate was administered in the drinking water (ad libitum) by means of a 2 mg/ml solution of sodium tungstate dihydrate (marketed by Carlo Erba) in distilled water after the pre-treatment phase (day 0 of treatment) and up to 4 weeks before sacrificing the animals. The daily dose of sodium tungstate ingested by the mice is about 180 mg/kg of body weight.
During the pre-treatment period and during the first 3 weeks of treatment, vaginal smears were performed in 6 randomly chosen female mice on days −8; −5; −2; −1; 7; 8; 14; 15 and 22 to determine the phase of the estrous cycle they were in.
Between […] of saline solution was introduced into the vagina of the mice with a Pasteur pipette. The vaginal exudate was collected with the same pipette and deposited on a slide. Once air-dried, it was fixed and stained with the Papanicolaou technique.
The Papanicolaou technique comprises staining the vaginal smears fixed on the slide as follows: • 10 immersions in 50% v/v alcohol; • immersing in Harris hematoxylin solution for 3 minutes; • rinsing with running water; • 10 immersions in acid alcohol (1% hydrochloric acid); • rinsing with running water; • 10 immersions in 95% v/v alcohol; • immersing in OG-6 solution for 30 seconds; • 10 immersions in 96% v/v alcohol; • immersing in eosin solution for 1 minute; • 10 immersions in 96% v/v alcohol; • 10 immersions in 86% v/v alcohol; and • 10 immersions in xylol.
The preparations were analyzed by trained staff using a code in a single-blind manner to eliminate observer bias.
The samples were identified in the following phases: diestrus, proestrus, estrus, metestrus, anestrus or non-evaluable. The cyclicality of the four phases in periods of 4 to 6 days is an indicator of a normal estrous cycle, whereas the absence of this cyclicality and the persistence in anestrus, diestrus or proestrus phases are indicators of the absence of the estrous cycle.

IRS2−/− female mice [3] = experiment: Implantation and pregnancy study after mating with IRS2wt male mice; assay type: in vivo, mouse; settings: for mean number of young/implanted embryos per female mouse pregnancy: treated IRS2−/− female mice
Description: as §1, §2, §3, §4
After the first three weeks of treatment, the IRS2^−/− female mice were housed in cages in pairs together with an IRS2^wt male mouse continuously.
The mice were observed daily in search of signs of pregnancy or birth. After 4 weeks, the male mice were exchanged between the cages and kept in said cages for another 4 weeks.
The administration of tungstate was maintained for the 8 weeks in which the male and female mice were housed together. After these 8 weeks, treatment was withdrawn and the male and female mice were housed together for 4 additional weeks.
After this period lapsed, the female mice were sacrificed and biopsied in search of indications of pregnancy.
After the mating period of the method in section B lapsed, the female mice were sacrificed and biopsied in search of indications of pregnancy.

Body weight study = assay type: in vivo, mouse; settings: for Body weight, Average: average of 6 IRS2−/− female mice; for variation in body weight during administration: first 12 days of treatment, IRS2−/− female mice; for variation in body weight during administration / Body weight: dihydrate; for Body weight: individual IRS2−/− female mice
Experimental: (§5) 6 IRS2^−/− female mice of ages comprised between 6 and 8 weeks.
(§6) The female mice were housed in normal conditions, i.e., 12-hour light/darkness cycle and controlled moisture and temperature. The animals were voluntarily fed (also named ad libitum) with a standard feed diet.
(§7) After a period of acclimation, sodium tungstate was administered in the drinking water (ad libitum) by means of a 2 mg/ml solution of sodium tungstate dihydrate (marketed by Carlo Erba) in distilled water after the pre-treatment phase (day 0 of treatment) and for 12 days.
(§8) Body weight was monitored on day 0, 2, 5, 7, 9 and 12 of the treatment period, and after 6 hours of fasting on each of the aforementioned days blood glucose was determined by means of withdrawing blood from the tail vein and with a glucose sensor (Roche AccuTrend Glucose Sensor. Mannheim, Germany).

[4] = test system: female rats with streptozotocin-induced diabetes; settings: cited from earlier work
[5] = Glycemia study (blood glucose after 6 hours of fasting, glucose sensor); assay type: in vivo, mouse; settings: for glycemia, Average: average of 6 IRS2−/− female mice; for variation in glycemia during administration: first 12 days of treatment, IRS2−/− female mice; for variation in glycemia during administration / glycemia: dihydrate; for glycemia: individual IRS2−/− female mice
Experimental: as §5, §6, §7, §8

[6] = individual treated IRS2−/− female mice, dihydrate

CCN(CC)CCOc1ccc(C(=C(Cl)c2ccccc2)c2ccccc2)cc1 [clomiphene citrate]
pregnancy rate [1]: ≤ 50% | restoring ovulation [1]: high percentage

O.O.[Na+].[Na+].[O]=[W](=[O])([O-])[O-] [sodium tungstate, sodium tungstate dihydrate]
phase of the estrous cycle (IRS2−/− female mice [2]; day 7 of treatment, 2 mg/ml in drinking water (about 180 mg/kg/day)): M and E (4×) and E-M | phase of the estrous cycle (IRS2−/− female mice [2]; day 8 of treatment, 2 mg/ml in drinking water): M and E-M (3×) and E (2×) | phase of the estrous cycle (IRS2−/− female mice [2]; day 14 of treatment, 2 mg/ml in drinking water): E and E-M (3×) and D | phase of the estrous cycle (IRS2−/− female mice [2]; day 15 of treatment, 2 mg/ml in drinking water): D and E (2×) and M (2×) and A | phase of the estrous cycle (IRS2−/− female mice [2]; day 22 of treatment, 2 mg/ml in drinking water): D (2×) and A (2×) and M and P | recovery of the estrous cycle, percentage of analyzed mice (IRS2−/− female mice [2]; infertile non-diabetic IRS2−/− female mice, on the seventh day of treatment): 100% | Pregnancy (IRS2−/− female mice [3]; individual treated IRS2−/− female mice, mated with IRS2wt males, dihydrate): YES | Number of implanted embryos or young born (embryos) (IRS2−/− female mice [3]; [6]): 7 embryos (3×) and 6 embryos | Number of implanted embryos or young born (young) (IRS2−/− female mice [3]; [6]): 8 young (2×) and 1 young and 3 young | pregnancy rate (IRS2−/− female mice [3]; treated IRS2−/− female mice (untreated 9%)): 80% | mean number of young/implanted embryos per female mouse pregnancy (IRS2−/− female mice [3]; dihydrate): about 5 | mean number of young/implanted embryos per female mouse pregnancy (IRS2−/− female mice [3]; listed as tungsten (VI) salt, dihydrate): 5 | Body weight, Average (Body weight study; Day 0 (start of treatment)): 17.03 g | Body weight, Average (Body weight study; Day 2): 17.33 g | Body weight, Average (Body weight study; Day 5): 16.97 g | Body weight, Average (Body weight study; Day 7): 16.84 g | Body weight, Average (Body weight study; Day 9): 17.35 g | Body weight, Average (Body weight study; Day 12): 17.72 g | variation in body weight during administration (Body weight study): no variations are observed | variation in body weight during administration (Body weight study; listed as tungsten (VI) salt): does not modify | Body weight (Body weight study; Day 0 (start of treatment)): 22.7 g and 15.33 g and 18.21 g and 16.5 g and 13.99 g and 15.45 g | Body weight (Body weight study; Day 2): 22.9 g and 14.84 g and 18.98 g and 17.01 g and 14.18 g and 16.04 g | Body weight (Body weight study; Day 5): 22.61 g and 14.89 g and 18.2 g and 16.61 g and 13.79 g and 15.72 g | Body weight (Body weight study; Day 7): 22.42 g and 15.07 g and 17.81 g and 16.35 g and 13.74 g and 15.66 g | Body weight (Body weight study; Day 9): 22.85 g and 15.56 g and 17.9 g and 16.89 g and 14.5 g and 16.39 g | Body weight (Body weight study; Day 12): 23.15 g and 15.91 g and 18.24 g and 17.19 g and 14.92 g and 16.89 g | circulating insulin levels ([4]; rats with streptozotocin-induced insulinopenia and diabetes, prolonged treatment (10 weeks)): partially recover | percentage of births with respect to the number of positive curettages ([4]; streptozotocin-diabetic females after 10 weeks of treatment, mated with healthy males (non-diabetic 100%)): 66% | glycemia, Average ([5]; Day 0 (start of treatment)): 128.17 mg/dL | glycemia, Average ([5]; Day 2): 117.33 mg/dL | glycemia, Average ([5]; Day 5): 122.33 mg/dL | glycemia, Average ([5]; Day 7): 118.83 mg/dL | glycemia, Average ([5]; Day 9): 125.17 mg/dL | glycemia, Average ([5]; Day 12): 118.83 mg/dL | variation in glycemia during administration [5]: no variations are observed | variation in glycemia during administration ([5]; listed as tungsten (VI) salt): does not modify | glycemia ([5]; Day 0 (start of treatment), 6 h fasting): 146 mg/dL and 129 mg/dL and 115 mg/dL and 126 mg/dL and 141 mg/dL and 112 mg/dL | glycemia ([5]; Day 2, 6 h fasting): 136 mg/dL and 128 mg/dL and 118 mg/dL and 110 mg/dL and 105 mg/dL and 107 mg/dL | glycemia ([5]; Day 5, 6 h fasting): 125 mg/dL and 142 mg/dL and 114 mg/dL and 111 mg/dL and 137 mg/dL and 105 mg/dL | glycemia ([5]; Day 7, 6 h fasting): 140 mg/dL and 110 mg/dL and 106 mg/dL and 89 mg/dL and 133 mg/dL and 135 mg/dL | glycemia ([5]; Day 9, 6 h fasting): 125 mg/dl (2×) and 153 mg/dl and 109 mg/dl and 108 mg/dl and 131 mg/dl | glycemia ([5]; Day 12, 6 h fasting): 136 mg/dL and 116 mg/dL and 111 mg/dL and 86 mg/dL and 123 mg/dL and 141 mg/dL
